Experimental data: PMC6968587, “Discovery of 3-alkyl-5-aryl-1-pyrimidyl-1H-pyrazole derivatives as a novel selective inhibitor scaffold of JNK3” (Journal of Enzyme Inhibition and Medicinal Chemistry, 2019)
pIC50: −log10 of the molar value. Read-outs that look alike come from different tables or passages of the source.

Assays:
Assay type in all cases: biochemical
GSK3β = molecular target: T1, GSK3β (Homo sapiens, UniProt P49841); assay: GSK3β enzymatic activity (IC50), Reaction Biology Kinase HotSpot
T1 construct: purchased Reaction Biology Corp. (Kinase HotSpot service)

JNK3 [1] = molecular target: T2, JNK3 (Homo sapiens, UniProt P53779); assay: Kinase panel screening, single dose 10 μM, in duplicate: JNK3; conditions: read-out: inhibitory activity on JNK3
Method: (§1) Next, we used kinase panel screening in duplicate for compound 7a over 38 different kinases at a single-dose concentration of 10 μM (Table 2). The compound was indeed a selective JNK3 inhibitor with an excellent selectivity profile.

[2] = system: 38 selected protein kinases; assay: Kinase panel screening, single dose 10 μM, in duplicate: other kinases of the 38-kinase panel
Method: as §1

JNK3 [3] = molecular target: T2, JNK3; assay: JNK3 enzymatic inhibitory activity (IC50)
Text: In an effort to reduce the molecular weight, the piperidine ring was diversified into pyrrolidine and azetidine with less carbon atoms.

[4] = enzymatic activity, Table 1, read-out: JNK3 IC50

T2 sequence (P53779 whole entry): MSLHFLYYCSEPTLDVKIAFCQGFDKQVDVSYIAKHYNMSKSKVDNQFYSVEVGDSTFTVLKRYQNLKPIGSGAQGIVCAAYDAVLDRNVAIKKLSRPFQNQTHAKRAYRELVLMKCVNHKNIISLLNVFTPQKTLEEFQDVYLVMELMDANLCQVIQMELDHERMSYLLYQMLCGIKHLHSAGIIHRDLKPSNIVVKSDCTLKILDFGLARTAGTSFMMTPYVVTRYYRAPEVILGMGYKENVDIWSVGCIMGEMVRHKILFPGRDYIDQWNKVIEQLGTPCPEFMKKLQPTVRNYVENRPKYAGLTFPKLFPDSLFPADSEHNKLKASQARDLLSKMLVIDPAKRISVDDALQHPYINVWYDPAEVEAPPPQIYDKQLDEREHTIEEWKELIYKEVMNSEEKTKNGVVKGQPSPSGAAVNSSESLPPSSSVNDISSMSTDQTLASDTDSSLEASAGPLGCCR
T1 sequence (P49841 whole entry): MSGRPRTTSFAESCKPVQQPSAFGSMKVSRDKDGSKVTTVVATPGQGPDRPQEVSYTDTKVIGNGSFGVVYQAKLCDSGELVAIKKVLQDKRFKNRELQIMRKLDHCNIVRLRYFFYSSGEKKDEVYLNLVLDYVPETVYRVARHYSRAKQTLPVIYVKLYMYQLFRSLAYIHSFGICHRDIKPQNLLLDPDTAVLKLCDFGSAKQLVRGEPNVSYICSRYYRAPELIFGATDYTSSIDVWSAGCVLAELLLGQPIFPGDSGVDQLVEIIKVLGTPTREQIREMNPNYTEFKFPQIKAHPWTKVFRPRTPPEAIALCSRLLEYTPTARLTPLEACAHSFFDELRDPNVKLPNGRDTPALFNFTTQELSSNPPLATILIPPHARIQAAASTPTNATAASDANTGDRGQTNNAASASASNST

| SMILES | pIC50 (JNK3 [3]; [4]) | other results |
| --- | --- | --- |
| N#CCc1cc(-c2ccc(Cl)c(Cl)c2)n(-c2ccnc(N[C@H]3CCCN(C(=O)C4CC4)C3)n2)n1 [7a] | 6.20 | pIC50 (GSK3β; Table 2, Kinase HotSpot service, read-out: Compound IC50* on GSK3β): 5.40; selectivity for JNK3 over GSK3β in terms of IC50 (GSK3β; ratio of IC50 GSK3β / JNK3): six fold selective; inhibition at 10 µM (JNK3 [1]): 90%; inhibition activity for most other kinases except GSK3β [2]: less than 20% |
| N#CCc1cc(-c2ccc3c(c2)CCO3)n(-c2ccnc(N[C@H]3CCN(C(=O)C4CC4)C3)n2)n1 [9d] | 5.49 |  |
| N#CCc1cc(-c2ccc3ccccc3c2)n(-c2ccnc(NC3CN(C(=O)C4CC4)C3)n2)n1 [10b] | 5.68 |  |
| N#CCc1cc(-c2ccc(Cl)c(Cl)c2)n(-c2ccnc(N[C@H]3CCN(C(=O)C4CC4)C3)n2)n1 [9a] |  | pIC50 (JNK3 [3]): 5.51 |
| N#CCc1cc(-c2ccc([N+](=O)[O-])cc2)n(-c2ccnc(N[C@H]3CCCN(C(=O)C4CC4)C3)n2)n1 [7f] | < 5.00 |  |
| NC(=O)Cc1cc(-c2ccc(Cl)c(Cl)c2)n(-c2ccnc(N[C@H]3CCCN(C(=O)C4CC4)C3)n2)n1 [11a] | 5.84 |  |
| N#CCc1cc(-c2ccc([N+](=O)[O-])cc2)n(-c2ccnc(N[C@@H]3CCN(C(=O)C4CC4)C3)n2)n1 [8f] | 5.10 |  |
| N#CCc1cc(-c2ccc(Cl)c(Cl)c2)n(-c2ccnc(N[C@@H]3CCN(C(=O)C4CC4)C3)n2)n1 [8a, (R)-2-(1-(2-((1-(cyclopropanecarbonyl)pyrrolidin-3-yl)amino)pyrimidin-4-yl)-5-(3,4-dichlorophenyl)-1H-pyrazol-3-yl)acetonitrile] |  | pIC50 (JNK3 [3]): 6.64 |
| N#CCc1cc(-c2cccc([N+](=O)[O-])c2)n(-c2ccnc(N[C@@H]3CCN(C(=O)C4CC4)C3)n2)n1 [8e] | < 5.00 |  |
| N#CCc1cc(-c2ccc3c(c2)CCO3)n(-c2ccnc(N[C@H]3CCCN(C(=O)C4CC4)C3)n2)n1 [7d] | 5.10 |  |
| N#CCc1cc(-c2ccc3c(c2)OCO3)n(-c2ccnc(N[C@@H]3CCN(C(=O)C4CC4)C3)n2)n1 [8c] | 5.66 |  |
| N#CCc1cc(-c2ccc3c(c2)OCO3)n(-c2ccnc(N[C@H]3CCCN(C(=O)C4CC4)C3)n2)n1 [7c] | 5.34 |  |
| N#CCc1cc(-c2ccc3ccccc3c2)n(-c2ccnc(N[C@@H]3CCN(C(=O)C4CC4)C3)n2)n1 [8b] | 6.44 |  |
| N#CCc1cc(-c2ccc3ccccc3c2)n(-c2ccnc(N[C@H]3CCN(C(=O)C4CC4)C3)n2)n1 [9b] | 5.54 |  |
| N#CCc1cc(-c2ccc(Cl)c(Cl)c2)n(-c2ccnc(NC3CN(C(=O)C4CC4)C3)n2)n1 [10a] | 5.55 |  |
| N#CCc1cc(-c2ccc3c(c2)OCO3)n(-c2ccnc(N[C@H]3CCN(C(=O)C4CC4)C3)n2)n1 [9c] | 5.07 |  |
| N#CCc1cc(-c2ccc3ccccc3c2)n(-c2ccnc(N[C@H]3CCCN(C(=O)C4CC4)C3)n2)n1 [7b] | 6.08 |  |
| N#CCc1cc(-c2ccc3c(c2)CCO3)n(-c2ccnc(N[C@@H]3CCN(C(=O)C4CC4)C3)n2)n1 [8d] | 5.35 |  |
| COC(=O)Cc1cc(-c2ccc(Cl)c(Cl)c2)n(-c2ccnc(N[C@H]3CCCN(C(=O)C4CC4)C3)n2)n1 [12a] | 6.04 |  |
| N#CCc1cc(-c2ccc3c(c2)OCO3)n(-c2ccnc(NC3CN(C(=O)C4CC4)C3)n2)n1 [10c] | 5.25 |  |
